The source of these data is US20180312493A1, “Antibiotic Compounds, Pharmaceutical Formulations Thereof And Methods And Uses Therefor” (Simon Fraser University, priority 2015, published 2018).

Converted amounts (≈) assume the structure as drawn.

Usually IC50 stands for the concentration that gives 50% inhibition. Usually MIC stands for the lowest concentration that inhibits growth of the organism.

For one assay, the target named is T1, MRSA Pyk (Staphylococcus aureus, UniProt Q6GG09).
T1 construct: made in house; host or cells: E. coli BL-21 (DE3)
T1 sequence (Q6GG09 whole entry): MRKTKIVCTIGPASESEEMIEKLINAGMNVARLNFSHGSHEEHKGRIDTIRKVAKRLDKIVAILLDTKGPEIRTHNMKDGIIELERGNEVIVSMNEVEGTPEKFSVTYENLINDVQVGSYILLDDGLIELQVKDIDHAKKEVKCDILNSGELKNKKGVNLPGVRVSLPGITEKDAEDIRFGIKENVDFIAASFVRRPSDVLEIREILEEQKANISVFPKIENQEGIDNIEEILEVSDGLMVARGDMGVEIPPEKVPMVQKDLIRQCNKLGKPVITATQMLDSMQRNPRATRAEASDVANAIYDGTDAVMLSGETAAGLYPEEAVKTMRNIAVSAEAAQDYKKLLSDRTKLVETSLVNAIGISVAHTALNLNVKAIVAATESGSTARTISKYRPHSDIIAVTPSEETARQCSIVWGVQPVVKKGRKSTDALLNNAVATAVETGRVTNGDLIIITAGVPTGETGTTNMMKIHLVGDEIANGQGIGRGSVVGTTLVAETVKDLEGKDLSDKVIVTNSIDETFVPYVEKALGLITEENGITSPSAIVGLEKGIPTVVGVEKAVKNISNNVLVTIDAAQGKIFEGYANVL
Description: MRSA pyruvate kinase (PK) activity, continuous LDH-coupled assay. It counts as biochemical, methicillin resistant S. aureus (MRSA252). The source says: Genomic DNA of MRSA strain Sanger 252 extracted using DNeasy Tissue Kit™ (Qiagen™) was used as a template to generate the His-tagged MRSA PK. Human cDNA from MCF-7 breast cancer cell line (courtesy of Dr. J Wong, BC Cancer Research Center (Vancouver, Canada)) was used as a template to generate the full-length human M2 PK enzyme. The following primer sets were used creating appropriate restriction sites (NdeI and XhoI sites underlined): For cloning of MRSA PK: M27F 5′-[…]-3′ and M27R 5′-[…]-3′, for cloning of human M2 PK isoform: hM2F 5′-[…]-3′ and hM2R 5′-[…]-3′. The resulting PCR fragments for each construct were cloned into the NdeI and XhoI unique sites of the bacterial expression vector pET-28a (+) (Novagen™). […] The sequence and the correct reading frame of all constructs were verified by sequencing. Human M1, R and L PK constructs in pET-28-a(+) vectors (courtesy of Dr. L. Cantley, Harvard Medical, School (Boston, USA)) were used to generate relevant recombinant His-tagged human PK isoforms.
MRSA and human constructs in pET-28a(+) were used to express relevant recombinant PK proteins in E. coli BL-21 (DE3). The proteins were expressed and purified using Ni-NTA agarose (Qiagen™) according to the manufacturer's protocol. Briefly, cells were grown to an absorbance of 0.4-0.5 at 600 nm in 2×YT medium, then induced with 0.1 mM IPTG for 3 h at 20° C. Cells were lysed by sonication on ice (3×10-s bursts with a 30-s recovery between bursts) in lysis buffer (0.2 mg/ml lysozyme, 50 mM Tris pH 7.5, 10 mM MgCl2, 200 mM NaCl, 100 mM KCl, 10% glycerol, 10 mM imidazole, 0.5% NP-40 and 1 mM DTT containing Complete™ protease inhibitor). Cell lysates were cleared by centrifugation (18,000×g in a Beckman™ JA-20 rotor) for 20 min at 4° C. and PK isoforms were purified by batch binding to Ni-NTA resin. The resins were then packed in columns (1×2 cm) and washed with 400 column volumes lysis buffer containing 30 mM imidazole. His-tagged PK isoforms were eluted with the same buffer containing 300 mM imidazole. The proteins were dialyzed overnight at 4° C. against 2000 volumes of ice-cold 30 mM Tris pH 7.5, 25 mM KCl, 5 mM MgCl2, 10% glycerol and 1 mM DTT to remove imidazole. All purification steps were done at 4° C.; enzymes were flash-frozen and stored at −70° C. Enzymatic activity of frozen protein preparations was stable for at least 10 months and up to 5 freeze/thaw cycles. Purity and physical integrity of proteins were assessed using SDS-polyacrylamide gel electrophoresis (SDS-PAGE) followed by coomassie blue staining. Protein concentration was estimated by Bradford assay (Bio-Rad Protein Assay™) using bovine serum albumin as a standard.
Candidate MRSA PK inhibitors were assayed for their ability to inhibit enzymatic activities of MRSA and human PKs. PK activity was determined using a continuous assay coupled to lactate dehydrogenase (LDH) in which the change in absorbance at 340 nm owing to oxidation of NADH was measured using a Benchmark Plus™ microplate spectrophotometer (Bio-Rad Laboratories, Hercules, Calif.). […] Reactions were initiated by the addition of 15 nM of one of the PK enzymes. PK activity proportional to the rate of change at 340 nm was expressed as specific activity (μmol/min/mg), which is defined as the amount of PK that catalyzes the formation of one micromole of either product per minute. Inhibitors were dissolved in DMSO with the final concentration of the solvent never exceeding 1% of the assay volume. IC50 values were calculated by curve fitting on a four-parameter dose-response model with variable slope using Graphpad Prism 5.0™ (GraphPad™ Software Inc., La Jolla, Calif.). In all studies, less than 10% of total PEP was exhausted during the reaction. Reactions were performed at 30° C. for up to 5 min. All values determined represent at least two measurements, in triplicate (Tables 1-6) or duplicate unless mentioned otherwise. […]

Another assay deals with S. aureus (ATCC29213). Kind of assay: In vitro susceptibility, broth microdilution (MIC). The conditions noted are these: Staphylococcus aureus; S. aureus ATCC29213; 18-24 h, 37 C; read-out: Antimicrobial activity (MIC) S. aureus ATCC29213. It counts as cell-based. The source says:
Epidemic methicillin resistant S. aureus (MRSA) strain sequenced at the Sanger Centre (MRSA252, NRS71) was obtained from NARSA (Network on Antimicrobial Resistance in S. aureus). Methicillin sensitive S. aureus (ATCC 29213 and 25923), methicillin resistant S. aureus (ATCC BAA-1762), and Salmonella typhimurium (ATCC BAA-185) were obtained from ATCC, The Global Bioresource Center. Acinetobacter baumannii (ATCC 19606 and ATCC 17978), Klebsiella pneumonia (C238), vancomycin resistant Enterococci #2 (2010A) (VRE#2), MRSA (USA400, MW2) and Pseudomonas aeruginosa (PA0-1) were obtained from the laboratory of Dr B. B. Finlay at the University of British Columbia (Vancouver, Canada).
The antimicrobial activities of PK inhibitor candidates were determined using the 96-well microtiter standard 2-fold serial broth microdilution method as described by CLSI (formerly NCCLS) with the various gram-positive and gram-negative bacteria species mentioned above. Bacteria from a single colony were grown, overnight in either BHI Broth (VRE), mueller hinton broth (S. aureus 29213; MRSA USA400, A. baumannii 19606, MRSA BAA-1762) or L-broth (P. aeruginosa, S. typhimurium, K. pneumonia and A. baumannii 17978). […] Culture plates were incubated for 18-24 h at 37° C., and optical density at 600 nm (OD600) was measured using a Benchmark Plus™ microplate spectrophotometer (Bio-Rad™). The absorbance control values for the series containing CAMHB and inhibitor were subtracted as background from the corresponding infected wells. Minimal inhibitory concentration (MIC) was defined as the lowest concentration of test compound leading to complete inhibition of cell growth in relation to compound-free control wells as determined by optical density. Vancomycin, methicillin and ciprofloxicin were used as reference compounds. All assays were run in triplicate or duplicate. Experiments were replicated at least twice to verify reproducibility using the above conditions.
For orientation: Broth dilution looks for growth in wells or tubes with falling amounts of substance.

For the compound `CN(C)C(=O)c1c(/C=C/c2ccc(Cl)cc2)[nH]c2cc(Br)ccc12` [Compound 21, (E)-6-Bromo-2-(4-chlorostyryl)-N,N-dimethyl-1H-indole-3-carboxamide], the IC50 at MRSA Pyk was less than 100 nM. In addition, in the assay on S. aureus (ATCC29213), the MIC is more than 64 µg/mL.

Compound `O=C(c1c(/C=C/c2ccc(Cl)cc2)[nH]c2cc(Br)ccc12)N1CCOCC1` [Compound 22, (E)-(6-Bromo-2-(4-chlorostyryl)-1H-indol-3-yl)(morpholino)methanone] gave an IC50 on MRSA Pyk of less than 100 nM. Further, the minimal inhibitory concentration (MIC) in the assay with S. aureus (ATCC29213) is more than 64 µg/mL.

Take `CN(C)CCN(C)C(=O)c1c(/C=C/c2ccc(Cl)cc2)[nH]c2cc(Br)ccc12` [Compound 24, (E)-6-Bromo-2-(4-chlorostyryl)-N-(2-(dimethylamino)ethyl)-N-methyl-1H-indole-3-carboxamide]: on MRSA Pyk, the half-maximal inhibitory concentration (IC50) is 100 to 1000 nM. Moreover, in the assay on S. aureus (ATCC29213), the MIC was more than 64 µg/mL.

In the case of `O=C(c1c(/C=C/c2ccc(Cl)cc2)[nH]c2cc(Br)ccc12)N1CCNCC1` [Compound 25, (E)-(6-Bromo-2-(4-chlorostyryl)-1H-indol-3-yl)(piperazin-1-yl)methanone], the IC50 against MRSA Pyk was in the range of 100 to 1000 nM. For the same compound, in the assay on S. aureus (ATCC29213), the MIC is 8 µg/mL (≈ 18 µM).

In turn, `O=C(NC1CN2CCC1CC2)c1c(/C=C/c2ccc(Cl)cc2)[nH]c2cc(Br)ccc12` (stereo not shown) [Compound 26, (E)-6-Bromo-2-(4-chlorostyryl)-N-(quinuclidin-3-yl)-1H-indole-3-carboxamide] registered a 50% inhibitory concentration (IC50) at MRSA Pyk of 100 to 1000 nM. Also, in the assay on S. aureus (ATCC29213), the MIC was 8 µg/mL (≈ 16.5 µM).

Regarding `O=C(NCc1ccccc1)c1c(/C=C/c2ccc(Cl)cc2)[nH]c2cc(Br)ccc12` [Compound 27, (E)-N-Benzyl-6-bromo-2-(4-chlorostyryl)-1H-indole-3-carboxamide], the 50% inhibitory concentration (IC50) on MRSA Pyk is less than 100 nM. Also, in the assay with S. aureus (ATCC29213), the MIC was more than 64 µg/mL.

Turning to `O=C(NCCO)c1c(/C=C/c2ccc(Cl)cc2)[nH]c2cc(Br)ccc12` [Compound 28, (E)-6-Bromo-2-(4-chlorostyryl)-N-(2-hydroxyethyl)-1H-indole-3-carboxamide], the half-maximal inhibitory concentration (IC50) at MRSA Pyk is 100 to 1000 nM. The minimal inhibitory concentration (MIC) in the assay with S. aureus (ATCC29213) is more than 64 µg/mL.

In the case of `O=C(NCCN1CCC(O)CC1)c1c(/C=C/c2ccc(Cl)cc2)[nH]c2cc(Br)ccc12` [Compound 30, (E)-6-Bromo-2-(4-chlorostyryl)-N-(2-(4-hydroxypiperidin-1-yl)ethyl)-1 H-indole-3-carboxamide], the concentration for half-maximal inhibition (IC50) at MRSA Pyk lay within 100 to 1000 nM. The minimal inhibitory concentration (MIC) with S. aureus (ATCC29213) stood at 16 µg/mL (≈ 31.8 µM).

For `CN1CCN(CCNC(=O)c2c(/C=C/c3ccc(Cl)cc3)[nH]c3cc(Br)ccc23)CC1` [Compound 31, (E)-6-Bromo-2-(4-chlorostyryl)-N-(2-(4-methylpiperazin-1-yl)ethyl)-1 H-indole-3-carboxamide], at MRSA Pyk, the IC50 is less than 100 nM. The minimum inhibitory concentration (MIC) with S. aureus (ATCC29213) was 16 µg/mL (≈ 31.9 µM).

`O=C(NC(CO)CO)c1c(/C=C/c2ccc(Cl)cc2)[nH]c2cc(Br)ccc12` [Compound 32, (E)-6-Bromo-2-(4-chlorostyryl)-N-(1,3-dihydroxypropan-2-yl)-1H-indole-3-carboxamide]: on MRSA Pyk, the IC50 is less than 100 nM. The minimum inhibitory concentration (MIC) with S. aureus (ATCC29213) is more than 64 µg/mL.

`CC(C)(C)OC(=O)N1CCN(CCNC(=O)c2c(/C=C/c3ccc(Cl)cc3)[nH]c3cc(Br)ccc23)CC1` [Compound 33, (E)-tert-Butyl 4-(2-(6-bromo-2-(4-chlorostyryl)-1H-indole-3-carboxamido)ethyl)piperazine-1-carboxylate] came in with an IC50 at MRSA Pyk of more than 1000 nM. The minimum inhibitory concentration (MIC) in the assay on S. aureus (ATCC29213) is more than 64 µg/mL.

`CN(C)CCNC(=O)c1c(/C=C/c2cc(Cl)cc(Cl)c2)[nH]c2cc(Br)ccc12` [Compound 34, (E)-6-Bromo-2-(3,5-dichlorostyryl)-N-(2-(dimethylamino)ethyl)-1H-indole-3-carboxamide] gave a concentration for half-maximal inhibition (IC50) on MRSA Pyk of more than 1000 nM. Moreover, the MIC in the assay with S. aureus (ATCC29213) was 16 µg/mL (≈ 33.2 µM).

`COc1ccc(/C=C/c2[nH]c3cc(Br)ccc3c2C(=O)NCCO)nc1` [Compound 35, (E)-6-Bromo-N-(2-hydroxyethyl)-2-(2-(5-methoxypyridin-2-yl)vinyl)-1 H-indole-3-carboxamide]: the IC50 at MRSA Pyk was 100 to 1000 nM. Moreover, the MIC in the assay with S. aureus (ATCC29213) was more than 64 µg/mL.

Consider `CN(C)C(=O)c1c(/C=C/c2ccc(Cl)nc2)[nH]c2cc(Br)ccc12` [Compound 36, (E)-6-bromo-2-(2-(6-chloropyridin-3-yl)vinyl)-N,N-dimethyl-1H-indole-3-carboxamide], for which the IC50 against MRSA Pyk fell in the range of 100 to 1000 nM. Moreover, in the assay with S. aureus (ATCC29213), the MIC is more than 64 µg/mL.

As for `O=C(O)CNC(=O)c1c(/C=C/c2ccc(Cl)cc2)[nH]c2cc(Br)ccc12` [Compound 38, (E)-2-(6-Bromo-2-(4-chlorostyryl)-1H-indole-3-carboxamido)acetic Acid], the half-maximal inhibitory concentration (IC50) against MRSA Pyk is less than 100 nM. Besides, in the assay with S. aureus (ATCC29213), the minimum inhibitory concentration (MIC) is more than 64 µg/mL.

As to `O=C(O)CCNC(=O)c1c(/C=C/c2ccc(Cl)cc2)[nH]c2cc(Br)ccc12` [Compound 39, (E)-3-(6-Bromo-2-(4-chlorostyryl)-1H-indole-3-carboxamido)propanoic Acid], the IC50 against MRSA Pyk was less than 100 nM. Further, the MIC in the assay on S. aureus (ATCC29213) is more than 64 µg/mL.

In turn, `O=C(NCCC1CCOCC1)c1c(/C=C/c2ccc(Cl)cc2)[nH]c2cc(Br)ccc12` [Compound 42, (E)-6-Bromo-2-(4-chlorostyryl)-N-(2-(tetrahydro-2H-pyran-4-yl)ethyl)-1H-indole-3-carboxamide] showed a half-inhibitory concentration (IC50) against MRSA Pyk of 100 to 1000 nM. The MIC with S. aureus (ATCC29213) is more than 64 µg/mL.

`O=C(c1c(CCc2ccc(Cl)cc2)[nH]c2cc(Br)ccc12)N1CCOCC1` [Compound 47, (6-Bromo-2-(4-chlorophenethyl)-1H-indol-3-yl)(morpholino)methanone] had a concentration for half-maximal inhibition (IC50) at MRSA Pyk of more than 1000 nM. The minimal inhibitory concentration (MIC) with S. aureus (ATCC29213) was more than 64 µg/mL.

With `CNC(=O)c1c(CCc2ccc(Cl)cc2)[nH]c2cc(Br)ccc12` [Compound 49, 6-Bromo-2-(4-chlorophenethyl)-N-methyl-1H-indole-3-carboxamide], the half-maximal inhibitory concentration (IC50) on MRSA Pyk is more than 1000 nM. Moreover, the MIC with S. aureus (ATCC29213) was more than 64 µg/mL.

With `CN(C)C(=O)c1c(CCc2ccc(Cl)cc2)[nH]c2cc(Br)ccc12` [Compound 50, 6-Bromo-2-(4-chlorophenethyl)-N,N-dimethyl-1H-indole-3-carboxamide], the IC50 on MRSA Pyk is more than 1000 nM. For the same compound, the minimal inhibitory concentration (MIC) in the assay with S. aureus (ATCC29213) is more than 64 µg/mL.
